What was measured:
Adenosine receptor A1 [1] = biological target: T1, Adenosine receptor A1 (Rattus norvegicus, UniProt P25099); experiment: Displacement of [3H]CCPA from adenosine A1 receptor in rat brain cortical membrane; format: cell membranes
T1 sequence (P25099 whole entry): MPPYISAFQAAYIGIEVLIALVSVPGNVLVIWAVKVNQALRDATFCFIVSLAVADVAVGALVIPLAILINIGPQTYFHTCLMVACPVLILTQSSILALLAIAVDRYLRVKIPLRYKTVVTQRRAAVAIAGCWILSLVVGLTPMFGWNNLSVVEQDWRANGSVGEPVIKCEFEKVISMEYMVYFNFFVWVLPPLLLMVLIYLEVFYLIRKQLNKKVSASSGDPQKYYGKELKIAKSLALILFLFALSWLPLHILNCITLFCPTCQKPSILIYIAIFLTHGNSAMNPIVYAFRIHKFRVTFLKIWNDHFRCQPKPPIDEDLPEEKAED

Adenosine receptor A2a [2] = biological target: Adenosine receptor A2a (Rattus norvegicus, UniProt P30543)
Adenosine receptor A3 [3] = biological target: T2, Adenosine receptor A3 (Homo sapiens, UniProt P0DMS8); experiment: Displacement of [3H]PSB11 from human adenosine A3 receptor expressed in CHO cells; format: cell-based
T2 sequence (P0DMS8 whole entry): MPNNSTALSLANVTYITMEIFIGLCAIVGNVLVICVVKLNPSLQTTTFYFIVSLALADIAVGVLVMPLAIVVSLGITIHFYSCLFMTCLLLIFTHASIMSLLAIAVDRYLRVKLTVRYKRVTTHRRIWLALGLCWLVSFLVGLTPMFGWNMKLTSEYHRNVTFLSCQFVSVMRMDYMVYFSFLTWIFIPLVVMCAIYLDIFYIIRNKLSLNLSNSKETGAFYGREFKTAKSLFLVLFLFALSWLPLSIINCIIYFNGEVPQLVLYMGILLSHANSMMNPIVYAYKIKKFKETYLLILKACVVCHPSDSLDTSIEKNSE

[4] = biological target: Adenosine receptor A1 (Rattus norvegicus) (UniProt P25099); experiment: Displacement of [3H]CCPA from adenosine A1 receptor in rat brain cortical membrane at 10 uM
[5] = biological target: Adenosine receptor A2a (Rattus norvegicus) (UniProt P30543); experiment: Displacement of [3H]MSX2 from adenosine A2A receptor in rat brain striatal membrane at 25 uM; format: cell membranes
Adenosine receptor A2b = biological target: T3, Adenosine receptor A2b (Homo sapiens, UniProt P29275); experiment: Displacement of [3H]ZM-241385 from human adenosine A2B receptor expressed in CHO cells; format: cell-based
T3 sequence (P29275 whole entry): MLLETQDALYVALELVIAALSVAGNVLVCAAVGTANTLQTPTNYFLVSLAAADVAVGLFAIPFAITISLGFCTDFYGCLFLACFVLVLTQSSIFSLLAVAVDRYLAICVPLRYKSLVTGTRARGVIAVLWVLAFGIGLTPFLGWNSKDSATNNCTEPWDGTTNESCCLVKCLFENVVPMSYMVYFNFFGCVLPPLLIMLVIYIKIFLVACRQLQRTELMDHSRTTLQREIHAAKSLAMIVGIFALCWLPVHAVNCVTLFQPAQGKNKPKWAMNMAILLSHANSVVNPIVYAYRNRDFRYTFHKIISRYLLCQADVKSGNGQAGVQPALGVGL

[6] = biological target: Adenosine receptor A1 (Rattus norvegicus) (UniProt P25099); experiment: Displacement of [3H]CCPA from adenosine A1 receptor in rat brain cortical membrane at 25 uM
Mus musculus [7] = experiment: Toxicity in Albino F1 mouse assessed as tonic extension followed by death at 300 mg/kg after 0.5 hrs; format: organism-based; set-up: dose 300 mg/kg; conditions: in vivo
[8] = biological target: Adenosine receptor A2a (Rattus norvegicus) (UniProt P30543); experiment: Displacement of [3H]MSX2 from adenosine A2A receptor in rat brain striatal membrane at 10 uM; format: cell membranes
[9] = biological target: T4, Adenosine receptor A2b (Homo sapiens) (UniProt P29275); experiment: Displacement of [3H]PSB298 from human adenosine A2B receptor expressed in CHO cells at 10 uM; format: cell-based
T4 sequence (whole entry): T3 sequence (P29275 whole entry)

[10] = biological target: T4, Adenosine receptor A2b (Homo sapiens); experiment: Displacement of [3H]ZM-241385 from human adenosine A2B receptor expressed in CHO cells at 10 uM; format: cell-based
[11] = biological target: T5, Adenosine receptor A3 (Homo sapiens) (UniProt P0DMS8); experiment: (§1) Displacement of [3H]PSB11 from human adenosine A3 receptor expressed in CHO cells at 10 uM; format: cell-based
T5 sequence (whole entry): T2 sequence (P0DMS8 whole entry)

Mus musculus [12] = experiment: Toxicity in Albino F1 mouse assessed as continuous seizure followed by death at 100 mg/kg after 0.5 hrs; format: organism-based; set-up: dose 100 mg/kg; conditions: in vivo
Mus musculus [13] = experiment: Toxicity in Albino F1 mouse assessed as continuous seizure at 100 mg/kg after 0.5 hrs; format: organism-based; set-up: dose 100 mg/kg; conditions: in vivo
Adenosine receptor A3 [14] = biological target: T2, Adenosine receptor A3; experiment: as §1; format: cell-based
Adenosine receptor A2a [15] = biological target: Adenosine receptor A2a (Homo sapiens, UniProt P29274); experiment: Displacement of [3H]MSX2 from human adenosine A2A receptor expressed in CHO cells; format: cell-based
Adenosine receptor A1 [16] = biological target: T6, Adenosine receptor A1 (Homo sapiens, UniProt P30542); experiment: Displacement of [3H]CCPA from human adenosine A1 receptor expressed in CHO cells; format: cell-based
T6 sequence (P30542 whole entry): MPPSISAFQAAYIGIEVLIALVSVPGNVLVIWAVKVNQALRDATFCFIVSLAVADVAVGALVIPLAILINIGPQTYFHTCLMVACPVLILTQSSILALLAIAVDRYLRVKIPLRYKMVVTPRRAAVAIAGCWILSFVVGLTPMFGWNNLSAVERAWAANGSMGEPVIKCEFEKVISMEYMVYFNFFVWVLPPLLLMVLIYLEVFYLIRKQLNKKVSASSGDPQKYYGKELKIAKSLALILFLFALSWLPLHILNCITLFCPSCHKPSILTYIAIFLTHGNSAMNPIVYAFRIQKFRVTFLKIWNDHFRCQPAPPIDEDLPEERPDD

[17] = biological target: T7, Adenosine receptor A1 (Homo sapiens) (UniProt P30542); experiment: Displacement of [3H]CCPA from human adenosine A1 receptor expressed in CHO cells at 25 uM; format: cell-based
T7 sequence (whole entry): T6 sequence (P30542 whole entry)

Mus musculus [18] = experiment: Toxicity in Albino F1 mouse assessed as death following tonic extension at 300 mg/kg after 0.5 hrs; conditions: in vivo
Mus musculus [19] = experiment: Toxicity in Albino F1 mouse assessed as tonic extension followed by death at 30 mg/kg after 0.5 hrs; format: organism-based; set-up: dose 30 mg/kg; conditions: in vivo

Chain of Adenosine receptor A2a (Rattus norvegicus) (P30543 whole entry): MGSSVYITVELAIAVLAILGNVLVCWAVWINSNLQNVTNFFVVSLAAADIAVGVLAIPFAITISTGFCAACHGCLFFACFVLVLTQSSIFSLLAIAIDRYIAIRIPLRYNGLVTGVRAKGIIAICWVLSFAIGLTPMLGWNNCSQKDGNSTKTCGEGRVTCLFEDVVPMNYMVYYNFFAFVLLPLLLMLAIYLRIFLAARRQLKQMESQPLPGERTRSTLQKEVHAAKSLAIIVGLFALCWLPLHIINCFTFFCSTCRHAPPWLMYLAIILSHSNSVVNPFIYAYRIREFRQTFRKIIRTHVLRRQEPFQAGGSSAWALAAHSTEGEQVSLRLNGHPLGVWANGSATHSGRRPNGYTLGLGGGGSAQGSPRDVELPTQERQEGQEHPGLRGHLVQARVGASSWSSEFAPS
Chain of Adenosine receptor A2a (Rattus norvegicus, UniProt P30543) (P30543 whole entry): as above
Chain of Adenosine receptor A2a (Homo sapiens, UniProt P29274) (P29274 whole entry): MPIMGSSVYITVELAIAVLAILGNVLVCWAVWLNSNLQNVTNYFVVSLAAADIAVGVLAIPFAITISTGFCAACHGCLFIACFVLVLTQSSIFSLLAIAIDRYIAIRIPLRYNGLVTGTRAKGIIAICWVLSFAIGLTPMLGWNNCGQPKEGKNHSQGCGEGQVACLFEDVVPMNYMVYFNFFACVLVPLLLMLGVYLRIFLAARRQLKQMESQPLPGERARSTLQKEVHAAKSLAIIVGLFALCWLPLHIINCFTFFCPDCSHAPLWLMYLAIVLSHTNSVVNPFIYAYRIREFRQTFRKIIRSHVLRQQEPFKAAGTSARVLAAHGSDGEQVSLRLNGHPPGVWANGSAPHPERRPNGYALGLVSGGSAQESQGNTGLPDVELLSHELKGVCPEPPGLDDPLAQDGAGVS

Row | Compound | Ki (Adenosine receptor A1 [1]) [µM] | Ki (Adenosine receptor A2a [2]) [µM] | Ki (Adenosine receptor A3 [3]) [µM] | also measured
1 | Cn1c(=O)c2c(nc3n2CCCN3CCOc2ccc(Cl)cc2Cl)n(C)c1=O | 3.5 | 1.09 | – | –
2 | Cn1c(=O)c2c(nc3n2CCCN3CCOC/C=C/c2ccccc2)n(C)c1=O | 10 | 4.29 | > 1 | Activity [4]: 36%
3 | CC(=O)Nc1ccc(OCCN2CCCn3c2nc2c3c(=O)n(C)c(=O)n2C)cc1 | 10 | 2.02 | > 1 | Activity [4]: 41%
4 | Cn1c(=O)c2c(nc3n2CCCN3CCOCc2ccc(F)cc2)n(C)c1=O | 3.68 | 3.05 | – | –
5 | CCCn1c(=O)c2c(nc3n2CCCN3CCc2c[nH]c3ccccc23)n(CCC)c1=O | 1.79 | 0.9 | > 1 | –
6 | CCCn1c(=O)c2c(nc3n2CCCN3CCc2ccc(OC)c(OC)c2)n(CCC)c1=O | 0.82 | 1.33 | > 1 | –
7 | Cn1c(=O)c2c(nc3n2CCCN3CCc2ccccn2)n(C)c1=O | > 25 | > 25 | > 10 | Activity [5]: 37%; Ki (Adenosine receptor A2b): 13.4 µM
8 | COc1ccc(CCN2CCCn3c2nc2c3c(=O)n(C)c(=O)n2C)cc1OC | ≥ 25 | 1.21 | – | Activity [6]: 33%
9 | Cn1c(=O)c2c(nc3n2CCCN3CCc2ccc(Cl)cc2)n(C)c1=O | 6.47 | 0.48 | – | Activity (Mus musculus [7]): Toxic
10 | Cn1c(=O)c2c(nc3n2CCCN3CCOC(=O)Nc2ccccc2)n(C)c1=O | > 10 | > 10 | – | Activity [8]: 35%; Activity [4]: 3%
11 | Cn1c(=O)c2c(nc3n2CCCN3CC(O)c2ccccc2)n(C)c1=O (configuration not stated) | 25 | 1.11 | – | Activity [6]: 49%
12 | Cn1c(=O)c2c(nc3n2CCCN3CCNCc2ccccc2)n(C)c1=O | 7.55 | 20 | – | Ki (Adenosine receptor A2b): > 10 µM; Activity [9]: 27%
13 | Cn1c(=O)c2c(nc3n2CCCN3CCOCc2ccccc2)n(C)c1=O | 3.16 | 3.69 | – | –
14 | Cn1c(=O)c2c(nc3n2CCCN3CCOc2ccc(Cl)cc2)n(C)c1=O | 4.22 | 25 | > 1 | Activity [5]: 49%; Activity [10]: 44%; Activity [11]: 45%; Ki (Adenosine receptor A2b): 10 µM
15 | Cc1ccc(OCCN2CCCn3c2nc2c3c(=O)n(C)c(=O)n2C)cc1 | 10 | 4.6 | > 1 | Activity [4]: 41%
16 | Cn1c(=O)c2c(nc3n2CCCN3CCOC(=O)Nc2cccc(Cl)c2)n(C)c1=O | > 10 | > 10 | – | Activity [8]: 33%; Activity [4]: 10%
17 | CC(=O)OC(CN1CCCn2c1nc1c2c(=O)n(C)c(=O)n1C)c1ccccc1 (configuration not stated) | – | 1 | – | Activity [6]: 50%
18 | Cn1c(=O)c2c(nc3n2CCCN3CCOCc2ccc(Cl)cc2)n(C)c1=O | 10 | 1.33 | – | Activity [4]: 48%
19 | Cn1c(=O)c2c(nc3n2CCCN3CCOC(=O)Nc2ccc(F)cc2)n(C)c1=O | > 10 | ≥ 10 | – | Activity (Mus musculus [12]): Toxic; Activity [8]: 42%; Activity [4]: 13%
20 | Cn1c(=O)c2c(nc3n2CCCN3CCCc2ccccc2)n(C)c1=O | 1.99 | 1.1 | – | Activity (Mus musculus [13]): Toxic
21 | Cn1c(=O)c2c(nc3n2CCCN3CCc2c[nH]c3ccccc23)n(C)c1=O | 25 | 0.33 | > 10 | Activity [10]: 56%; Inhibition (Adenosine receptor A3 [14]): 21%; Ki (Adenosine receptor A2a [15]): 4.56 µM; Ki (Adenosine receptor A2b): 10 µM; Ki (Adenosine receptor A1 [16]): > 25 µM; Activity [17]: 21%
22 | Cn1c(=O)c2c(nc3n2CCCN3CCOC(=O)Nc2ccc(Cl)cc2)n(C)c1=O | > 10 | > 10 | – | Activity [8]: 32%; Activity [4]: 24%; Activity (Mus musculus [18]): Toxic
23 | Cn1c(=O)c2c(nc3n2CCCN3CCNCc2ccc(F)cc2)n(C)c1=O | 2.63 | 14 | – | –
24 | COc1ccc(CCN2CCCn3c2nc2c3c(=O)n(C)c(=O)n2C)cc1 | 3.85 | 0.37 | – | –
25 | CC(C(O)c1ccccc1)N1CCCn2c1nc1c2c(=O)n(C)c(=O)n1C (configuration not stated) | 25 | 2.16 | – | Activity [6]: 45%
26 | Cn1c(=O)c2c(nc3n2CCCN3CCc2ccccc2)n(C)c1=O | > 25 | 0.32 | > 10 | Activity [10]: 57%; Inhibition (Adenosine receptor A3 [14]): 20%; Ki (Adenosine receptor A2a [15]): 2.89 µM; Activity (Mus musculus [19]): Toxic; Ki (Adenosine receptor A2b): 10 µM; Ki (Adenosine receptor A1 [16]): > 10 µM; Activity [17]: 44%; Activity [6]: 31%
27 | CCCn1c(=O)c2c(nc3n2CCCN3CCc2ccccc2)n(CCC)c1=O | 0.62 | 0.86 | 3.66 | Ki (Adenosine receptor A2b): 0.59 µM
28 | Cn1c(=O)c2c(nc3n2CCCN3CCc2ccc(O)cc2)n(C)c1=O | 25 | – | > 10 | Inhibition (Adenosine receptor A3 [14]): 9%; Ki (Adenosine receptor A1 [16]): ≥ 25 µM; Activity [17]: 34%
29 | CC(=O)OC(c1ccccc1)C(C)N1CCCn2c1nc1c2c(=O)n(C)c(=O)n1C (configuration not stated) | – | 1.22 | – | –

Source: ChEMBL document CHEMBL1137492, “Phenylethyl-substituted pyrimido[2,1-f]purinediones and related compounds: structure-activity relationships as adenosine A(1) and A(2A) receptor ligands” (Bioorg Med Chem, 2007)
